The values below come from US11224633B2, “Kit for treating sepsis and/or any systemic (SIRS) or damaging cellular hyperinflammation” (priority 2015, dated 2022).

The conditions of series [1]: in vivo; cited from earlier work.
The subject of series [2] is male IOPS Han Ico Wistar rats, septic shock by LPS Salmonella typhimurium.
Setting [3] is: venous blood at euthanasia H 6h30, individual rats, selenite alone = group 2 perfusion.
Setting [4] is: venous blood gases at euthanasia H 6h30, individual rats, selenite alone = group 2 perfusion.

With `[Se]` [selenium], the “NOAEL No Adverse Effect Level determined in nutrition, per kg” value in series [1] is given as 11 μg/kg per day.
As to `O=[Se](O)O` [sodium selenite], the “ScvO2 or SaO2” value in series [2] (blood at euthanasia H 6h30, individual rats, selenite alone = group 2 perfusion) was 8.9. In series [2] (creatinine at H 6h30, individual rats, selenite alone = group 2 perfusion), this compound yielded a Creat of 156. In series [2] (glycemia at H 6h30, individual rats, selenite alone = group 2 perfusion), this compound displayed a Gly of 0.27. Further, the survival of animals entry in series [2] (group 4: control B2 then Na2SeO3 alone in 3 flash injections every 10 min, LPS 50 mg/kg) was “do not survive”. Besides, the Lactate level in series [2] (individual rats, LPS 50 mg/kg, sample at H 6h30, selenite alone = group 2, 0.3 mg/kg Se perfused over 30 min, Sel-P over 30 min, combination = Sel-P then 3 flash injections of selenite 0.1 mg/kg) came out at 8.75 mmol/L. Further, in series [2] (setting [3]), the “CO3H—” value stood at 19.6 and the Venous lactate amounted to 8.75 mmol/L. Also, in series [2] (setting [4]), the PCO2 was 97 mmHg, the PaO2 stood at 16 mmHg and the pH worked out at 6.906.
